This assay deals with T1, human GnRH receptors (Homo sapiens, UniProt P30968).
T1 construct: expressed in transfected cells; host or cells: HEK 293
T1 sequence (P30968 1-328): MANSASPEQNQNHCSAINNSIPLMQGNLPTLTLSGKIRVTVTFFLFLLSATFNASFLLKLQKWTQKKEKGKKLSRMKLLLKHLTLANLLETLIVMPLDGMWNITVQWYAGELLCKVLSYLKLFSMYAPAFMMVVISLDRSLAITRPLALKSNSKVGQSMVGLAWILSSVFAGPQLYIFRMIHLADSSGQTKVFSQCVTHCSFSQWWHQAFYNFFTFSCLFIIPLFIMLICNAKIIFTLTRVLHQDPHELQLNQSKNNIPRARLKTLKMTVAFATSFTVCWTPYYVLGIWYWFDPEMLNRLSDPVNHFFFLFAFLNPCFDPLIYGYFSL
As to the kind of experiment: Radioligand binding assay: inhibition of binding of 125I-GnRH-A to GnRH receptors (membranes). As to conditions: Human GnRH receptor; competition with 125I-GnRH-A; Ki calculated from IC50 (Cheng et al.). The procedure: HEK 293 cells stably transfected with mouse or human GnRH receptors as described above are grown in Dulbecco's high-glucose, modified Eagle's medium (DMEM) supplemented with 0.2% G418, 10% fetal bovine serum (FBS) and 100U/mL penicillin/streptomycin. GH3 cells stably transfected with the rat GnRH receptor (GGH3) were provided by Dr. William Chin (Harvard Medical School, Boston, Mass.). These cells are extensively characterized previously (Kaiser et al., 1997). The cells are grown in low glucose DMEM containing: 100U/mL penicillin/streptomycin, 0.6% G418 and 10% heat-inactivated FBS.
HEK 293 cells containing mouse or human receptors, or rat pituitaries (Pel Freez Biologicals, Rogers, Ark.) are homogenized in buffer A containing: 50 mM Tris (pH 7.4), 0.32 M sucrose, 2 mM EGTA, 1 mM PMSF, 5 μg/ml aprotinen, 5 μg/ml Pepstatin A, and 1 μg/ml leupeptin. Homogenized cells are centrifuged at 4° C. at 20,000×g for 25 minutes, re-suspended in buffer A and re-centrifuged at 4° C. at 20,000×g for an additional 25 minutes. Total membrane protein was determined with a BCA kit (Pierce, Rockford, Ill.). Membranes are stored at −70° C. at a final membrane protein concentration of approximately 5 mg/ml.
The radioiodinated agonist analog of GnRH, [des-Gly^10, D-Ala^6]GnRH ethylamide (^125I-GnRH-A), is used as the radioligand. One μg of GnRH-A diluted in 0.5 M phosphate buffer (pH 7.4) is added to an lodogen®-coated borosilicate glass tube (Pierce, Rockford, Ill.) containing 35 μl of 0.05 M phosphate buffer (pH 7.4-7.6) and 1 mCi of Na[^125I]. The reaction mixture is vortexed and incubated for 1 minute at room temperature. After one minute, the mixture is vortexed and allowed to incubate for an additional minute. 2 ml of 0.5 M acetic acid/1% BSA is added to the reaction tube and the mixture is added to a C18 Sep-Pak cartridge. The cartridge is washed with subsequent washes of 5 ml H2O and 5 ml 0.5 M acetic acid and then eluted with 5×1 ml of 60%CH3CN/40% 0.5 M acetic acid. The eluate is diluted with 3× volume of HPLC buffer A (0.1% TFA in H2O) and loaded onto a C18 column. The iodinated product is eluted over 20-25 min with a gradient of 25-100% CH3CN containing 0.1% TFA. The radioactive fractions (750 μl/fraction) are collected into clean polypropylene tubes containing 100 μl of 10% BSA. Fractions are assessed for biological activity by radiolig and binding. Specific activity of the radioligand was approximately 2200 Ci/mmol.
Membranes are diluted to 0.01-0.5 mg/ml (depending upon the species of receptor) with assay buffer containing 50 mM HEPES (pH 7.4), 1 mM EDTA, 2.5 mM MgCl2, and 0.1% BSA. Membranes (diluted to utilize similar receptor numbers between assays) are incubated with approximately 0.04-0.06 nM ^125I-GnRH-A in the presence or absence of competing agents (0.1-10,000 nM) in a total volume of 200 μl in 96-well polypropylene plates for 1 hour at room temperature. Assays are stopped by rapid filtration onto 96-well GF/C filters soaked in 0.1% polyethylenimine (PEI) utilizing a Packard 96-well cell harvester. Filters are washed three times with ice-cold PBS (50 mM NaPO4, 0.9% NaCl, 2 mM MgCl2, and 0.02% NaN3, pH 7.4). 35 μl of scintillation cocktail is added to each filter well and filters are counted on a Packard Topcount. Control dose-response curves are generated to GnRH (0.1 nM-100 nM) in each competition binding experiment. Ki values were calculated from IC50 values according to Cheng et al., Biochemical Pharmacol. 22: 3099-3108, 1973. [formula]
Turning to `COc1cc(OC)c(CNNC(=O)c2ccc(Cc3cc4c(cc3C)C(C)(C)CCC4(C)C)o2)c(OC)c1` [Example A1, 5-[(3,5,5,8,8-Pentamethyl-5,6,7,8-tetrahydro-2-naphthalenyl)methyl]-N′-(2,4,6-trimethoxybenzyl)-2-furohydrazide], the Ki (as a rule, the equilibrium dissociation constant of an inhibitor or competing ligand from its target) was 1840 nM.

`COc1cccc(OC)c1CNNC(=O)c1ccc(Cc2cc3c(cc2C)C(C)(C)CCC3(C)C)o1` [Example A2]: the Ki is 700 nM. As to `Cc1cc(C)cc(NNC(=O)c2ccc(Cc3cc4c(cc3C)C(C)(C)CCC4(C)C)o2)c1` [Example B2, N′-(3,5-dimethylphenyl)-5-[(3,5,5,8,8-pentamethyl-5,6,7,8-tetrahydro-2-naphthalenyl)methyl]-2furohydrazide], the Ki was 310 nM.

`Cc1cc(NNC(=O)c2ccc(Cc3cc4c(cc3C(C)C)C(C)(C)CCC4(C)C)o2)nc2c1c(C)nn2C` [Example C3, 5-[(3-lsopropyl-5,5,8,8-tetramethyl-5,6,7,8-tetrahydro-2-naphthalenyl)methyl]-N′-(1,3,4-trimethyl-1H-pyrazolo[3,4-b]pyridin-6-yl)-2-furohydrazide]: the Ki was 300 nM.

Turning to `COc1cc2c(cc1Cc1ccc(C(=O)NNc3nccc(NCC4CCCO4)n3)o1)C(C)(C)CCC2(C)C` (centres unmarked) [Example C7], the Ki is 1740 nM.

For the compound `Cc1cc2c(cc1Cc1ccc(C(=O)NNc3c(Cl)cncc3Cl)o1)C(C)(C)CCC2(C)C` [Example C8, N′-(3,5-dichloro-4-pyridinyl)-5-[(3,5,5,8,8-pentamethyl-5,6,7,8-tetrahydro-2-naphthalenyl)methyl]-2-furohydrazide], the Ki was 410 nM. With `Cc1cc2c(cc1Cc1ccc(C(=O)NNc3ccccn3)o1)C(C)(C)CCC2(C)C` [Example C10, 5-[(3,5,5,8,8-Pentamethyl-5,6,7,8-tetrahydro-2-napthalenyl)methyl]-N′-(2-pyridinyl)-2-furohydrazide], the Ki is 350 nM. Take `Cc1cc2c(cc1Cc1ccc(C(=O)NNc3ccc(C(F)(F)F)cn3)o1)C(C)(C)OC2(C)C` [Example E5, 5-(1,1,3,3,6-Pentamethyl-1,3-dihydro-isobenzofuran-5-ylmethyl)-furan-2-carboxylic acid N′-(5-trifluoromethyl-pyridin-2-yl)-hydrazide]: the inhibitory constant (Ki) was 390 nM. For `CCN(CC)C(=O)c1ccc(C)c(Oc2ccc(C(=O)NNc3cc(C)c4c(C)nn(C)c4n3)o2)c1` [Example H1, N,N-diethyl-4-methyl-3-[(5-{[2-(1,3,4-trimethyl-1H-pyrazolo[3,4-b]pyridin-6-yl)hydrazino]carbonyl}-2-furyl)oxy]benzamide], the Ki is 5600 nM. Take `CC(=O)N1CCC(C)(C)c2cc(Oc3ccc(C(=O)NNc4cc(C)c5c(C)nn(C)c5n4)o3)c(Cl)cc21` [Example I1, 5-(1-Acetyl-7-chloro-4,4-dimethyl-1,2,3,4-tetrahydro-quinolin-6-yloxy)-furan-2-carboxylic acid N′-(1,3,4-trimethyl-1H-pyrazolo[3,4-b]pyridin-6-yl)-hydrazide]: the Ki was 630 nM. For the compound `Cc1ccccc1Oc1ccc(C(=O)NNc2cc(C)c3c(C)nn(C)c3n2)o1` [Example I4, 5-(2-Methylphenoxy)-N′-(1,3,4-trimethyl-1H-pyrazolo[3 ,4-b]pyridin-6-yl)-2-furohydrazide], the Ki was 980 nM. As for `Cc1cc2c(cc1Oc1ccc(C(=O)NNc3nc(N)nc(C4CC4)n3)o1)C(C)(C)CC2` [Example I13, N′-(4-Amino-6-cyclopropyl-1,3,5-triazin-2-yl)-5-[(3,3,6-trimethyl-2,3-dihydro-1H-inden-5-yl)oxy]-2-furohydrazide], the Ki is 40 nM. The figure for `Cc1cc2c(cc1Oc1ccc(C(=O)NNc3ccc(S(N)(=O)=O)cc3)o1)C(C)(C)CC2` [Example I14, 4-(2-{5-[(3,3,6-Trimethyl-2,3-dihydro-1H-inden-5-yl)oxy]-2-furoyl}hydrazino)benzenesulfonamide] is 225 nM. As for `CC(=O)N(C)c1ccc(C)c(Oc2ccc(C(=O)NNc3cc(C)c4c(C)nn(C)c4n3)o2)c1` [Example I30, N-Methyl-N-(4-methyl-3-{5-[N′-(1,3,4-trimethyl-1H-pyrazolo[3,4-b]pyridin-6-yl)-hydrazinocarbonyl]-furan-2-yloxy}-phenyl)-acetamide], the Ki is 630 nM. With `Cc1cc(C)c(Cc2ccc(C(=O)NNc3cc(C)c4c(C)nn(C)c4n3)o2)c(C)c1` [Example J3, 5-(Mesitylmethyl)-N′-(1,3,4-trimethyl-1H-pyrazolo[3,4-b]pyridin-6-yl)-2-furohydrazide], the Ki was 400 nM.

On to `Cc1c(C)c(C)c(Cc2ccc(C(=O)NNc3cc(C)c4c(C)nn(C)c4n3)o2)c(C)c1C` [Example J5, 5-(2,3,4,5,6-Pentamethylbenzyl)-N′-(1,3,4-trimethyl-1H-pyrazolo[3,4-b]pyridin-6-yl)-2-furohydrazide], for which the Ki is 1400 nM.

In the case of `COc1ccc(OC)c(Cc2ccc(C(=O)NNc3cc(C)c4c(C)nn(C)c4n3)o2)c1` [Example J6, 5-(2,5-Dimethoxy-benzyl)-furan-2-carboxylic acid N′-(1,3,4-trimethyl-1H-pyrazolo[3,4-b]pyridin-6-yl)-hydrazide], the Ki was 16100 nM.

For `COc1cc(Cc2ccc(C(=O)NNc3cc(C)c4c(C)nn(C)c4n3)o2)c(OC)c(OC)c1` [Example J8, 5-(2,3,5-trimethoxybenzyl)-N′-(1,3,4-trimethyl-1H-pyrazolo[3,4-b]pyridin-6-yl)-2-furohydrazide], the Ki is 3890 nM. For `COc1ccc(OC)c(OC)c1Cc1ccc(C(=O)NNc2cc(C)c3c(C)nn(C)c3n2)o1` [Example J9, 5-(2,3,6-trimethoxybenzyl)-N′-(1,3,4-trimethyl-1H-pyrazolo[3,4-beta]pyridin-6-yl)-2-furohydrazide], the Ki was 4770 nM. Regarding `COc1cc(OC)c(Cc2ccc(C(=O)NNc3cc(C)c4c(C)nn(C)c4n3)o2)c(OC)c1` [Example J10, 5-(2,4,6-trimethoxybenzyl)-N-(1,3,4-trimethyl-1H-pyrazolo[3,4-b]pyridin-6-yl)-2-furohydrazide], the Ki is 1690 nM. As for `CCC(C)(C)c1ccc(OC)c(Cc2ccc(C(=O)NNc3cc(C)c4c(C)nn(C)c4n3)o2)c1` [Example J13, 5-[2-Methoxy-5-(tert-pentyl)benzyl]-N′-(1,3,4-trimethyl-1H-pyrazolo[3,4-b]pyridin-6-yl)-2-furohydrazide], the Ki is more than 10000 nM. For the compound `COc1cc(OC)c(OC)cc1Cc1ccc(C(=O)NNc2cc(C)c3c(C)nn(C)c3n2)o1` [Example J14, 5-(2,4,5-trimethoxybenzyl)-N-(1,3,4-trimethyl-1H-pyrazolo[3,4-b]pyridin-6-yl)-2-furohydrazide], the Ki is more than 10000 nM.

For `Cc1ccc(C)c(Cc2ccc(C(=O)NNc3cc(C)c4c(C)nn(C)c4n3)o2)c1` [Example J17], the Ki is 610 nM.

The record behind these values is patent publication US6903132B2, “Non-peptide GnRH agents, pharmaceutical compositions and methods for their use” (Agouron Pharmaceuticals, Inc., priority 2002, dated 2005).
